{"source": "patent US11503826B2", "about": "“Low volatility auxin herbicide formulations” (priority 2009, dated 2022)", "key": {"[1]": {"format": "physicochemical", "conditions": "38.5 wt % a.e. solutions (Table 4i)", "experimental": "In a further set of experiments, measurements of dicamba concentration in the gas phase (air) above 38.5 wt % a.e. solutions of various dicamba salts was measured. 5 mL of each sample of dicamba was placed into a 50 mL plastic centrifuge tube with four holes approximately ⅛ in diameter drilled into the tube at the 10 mL line. A 22 mm×30 mm PUF (SKC ct. #226-124) was placed into a glass tube of app. 20 mm diameter with parafilm wrapped around the outside to obtain a snug fit into the top of the centrifuge tube. A hose was connected to the other end of the glass tube leading to a vacuum line. The air flow was regulated to app. 2 L/min using a flow controller (about 0.4 L air/min-mL sample). Air was pulled through the tube at […] for approximately 1 day. Note that the air conditions of flow rate, temperature, pressure and composition (e.g., relative humidity) are not narrowly critical as long as the various samples are analyzed under similar conditions. For instance, air at from about 5° C. to about 40° C., from about 0.5 to about 1.5 bar pressure, from about 0% to about 95% relative humidity, and at a flow rate of from about 0.1 to 10 L/min-mL sample could be suitably used for volatility analysis. The PUF was removed from the glass tube, extracted with 20 mL methanol and the resulting solution analyzed for dicamba concentration by LC-MS. The results are shown in Table 4i below where “wt % a.e.” refers to the dicamba concentration, “μg/mL” refers to the dicamba concentration in the distillate, “μg dicamba” refers to the total dicamba extracted from the PUF by 20 mL methanol, and “ng/L air” and “moles/L air” refer to the dicamba concentration in the gas phase above the solution."}, "[2]": {"assay": "Aqueous solubility of dicamba acid and dicamba salts", "conditions": "for aqueous solubility wt % a.i. @20° C.: dicamba salts", "source_text": "The solution was then passed through a 0.45 micron filter and assayed by HPLC for soluble dicamba."}, "eyes of rabbit": {"test_system": "eyes of rabbit", "experimental": "Eye irritation measurement can be done according to the methods provided in U.S. Environmental Protection Agency Office of Prevention, Pesticides and Toxic Substances, Health Effects Test Guidelines (for example, OPPTS 870.2400 Acute Eye Irritation, August 1998).\nThe eye irritation potential of an aqueous formulation of the present invention was evaluated. […] Eye irritation testing was done according to the methods provided in U.S. Environmental Protection Agency Office of Prevention, Pesticides and Toxic Substances, Health Effects Test Guidelines: OPPTS 870.2400 Acute Eye Irritation. The eyes of 3 rabbit animals were treated with the formulation and were scored for effects on the cornea, iris, and conjunctivae (redness, swelling and discharge)."}, "[3]": {"assay": "Distillation volatility: dicamba in distillate by HPLC/MS", "format": "physicochemical", "experimental": "The pH was measured on a standard Orion Model 320 pH meter of each neat solution.\nSimple distillation using a short path still was used to collect the water distillate containing the dicamba in the vapor phase of the salt solutions. A 50 mL distillation flask was used. The distillation receiver was a “cow” type with four 2 mL graduated sections. The solutions were heated at the 30% setting of the GlassCol heating unit and the boiling point of each distillation was noted. The first 2 ml of distillate was collected, and the receiver rotated to avoid collection of any further distillate in that section as the distillation flask cooled. The 2 mL sample was quantitatively transferred by pipette to HPLC vials for later analysis. Between each distillation the distillation apparatus was washed with 10 volumes of tap water, 10 volumes of distilled water, rinsed with acetone, and dried in a 60° C. oven. Each distillation was run in triplicate.\nThe distillate was collected and analyzed for dicamba concentration using HPLC/Mass Spectroscopy (MS). The HPLC column was an Agilent Zorbax Eclipse XDB-C8, 4.6×150 mm, 5u, PN 993967-90. Mobile phase A was 0.1% formic acid in D.I. water. Mobile phase B was 0.1% formic acid in acetonitrile. A flow rate of 1.2 mL/min was used and an injection volume of 5, 10, 15 or 25 ul was used depending on the dicamba level in the sample. The following gradient was used: […]\nThe MS parameters were as follows: Type SIR; ES-ion mode; 0.05 second inter channel delay; 0.05 second interscan time; 0.5 span (Da); 10 minutes elapsed time; and 6-6000 ppb calibration range. […] Channel 2 mass was 177 (Da); Dwell was 0.25(s); Cone(V)=tune and; 0.05(s) delay."}, "[4]": {"assay": "Tank mix compatibility of dicamba salts with potassium glyphosate", "format": "physicochemical", "source_text": "The weight of the dicamba solution that caused precipitation was noted. The results are reported in Table 12a below where “salt” refers to the dicamba salt and “g to crystals” refers to the total amount of grams of dicamba a.e. that were required to induce crystallization or precipitation of crystals."}, "[5]": {"conditions": "5% a.e. DMA Dicamba solution"}, "[6]": {"conditions": "20° C.; 'is believed to have'; cited from earlier work"}}, "note": "Where a name gives a salt, the structure may show the parent alone. Read-outs that look alike come from different tables or passages of the source.", "data": [{"compound": "COc1c(Cl)ccc(Cl)c1C(=O)O.NCCO", "note": "[Dicamba MEA salt]", "values": [{"measurement": "dicamba concentration in the gas phase above the solution, comparison", "setting": "[1]", "result": "lower than the acid or the sodium, potassium and DMA salts"}, {"measurement": "gas concentration, times less than the commercial product BANVEL", "setting": "[1]", "result": "~20", "unit": "times"}, {"measurement": "aqueous solubility wt % a.e. @20° C.", "setting": "[2]; Table 10b, second experiment, dicamba acid and salts, 20° C.", "result": 66.1, "unit": "wt % a.e."}, {"measurement": "aqueous solubility wt % a.i. @20° C.", "setting": "[2]; Table 10b, second experiment, 20° C.", "result": 84.4, "unit": "wt % a.i."}, {"measurement": "crystal formation from concentrated salt solution", "setting": "[2]; solubility experiment, Example 10", "result": "did not form crystals"}, {"measurement": "time after treatment at which all eyes were free of positive scores", "setting": "eyes of rabbit; 61 wt % a.e., pH 8.5", "result": 7, "unit": "days"}, {"measurement": "time by which all eyes were free of all irritation", "setting": "eyes of rabbit; 61 wt % a.e., pH 8.5", "result": "≤ 10", "unit": "days"}, {"measurement": "eye irritation rating in words", "setting": "eyes of rabbit; Example 16: 61 wt % a.e. aqueous MEA dicamba, pH 8.5, 3 rabbits, b51: concentrate formulations at pH about 8", "result": "moderately irritating"}, {"measurement": "ocular findings in all treated eyes", "setting": "eyes of rabbit; within 24 hours after treatment, 61 wt % a.e., pH 8.5", "result": "corneal opacity, iritis and conjunctivitis"}]}, {"compound": "COc1c(Cl)ccc(Cl)c1C(=O)O", "note": "[Dicamba sodium salt, reference compound]", "values": [{"measurement": "aqueous solubility Approximate g a.e./L @20° C.", "setting": "[2]; 20° C., listed as sodium salt", "result": 364, "unit": "g a.e./L"}, {"measurement": "aqueous solubility wt % a.e. @20° C.", "setting": "[2]; 20° C., listed as sodium salt", "result": 36.3, "unit": "wt % a.e."}, {"measurement": "crystal formation on drying on a glass surface", "setting": "[2]; Example 10", "result": "formed crystals very readily"}, {"measurement": "Comments (crystal formation)", "setting": "[2]; Table 10a, dicamba salt solutions, listed as Na", "result": "Crystals form easily"}, {"measurement": "solubility 0° C. a.e.", "setting": "[2]; Table 10a, dicamba salt, equilibrated 5 to 7 days at 0° C., acid equivalent, listed as Na", "result": 33, "unit": "wt %"}, {"measurement": "solubility 0° C. a.i.", "setting": "[2]; Table 10a, dicamba salt, equilibrated 5 to 7 days at 0° C., active ingredient, listed as Na", "result": 36.3, "unit": "wt %"}, {"measurement": "solubility 20° C. a.e.", "setting": "[2]; Table 10a, dicamba salt, equilibrated 5 to 7 days at 20° C., 0.45 micron filter, HPLC, acid equivalent, listed as Na", "result": 36.3, "unit": "wt %"}, {"measurement": "solubility 20° C. a.i.", "setting": "[2]; Table 10a, dicamba salt, equilibrated 5 to 7 days at 20° C., active ingredient, listed as Na", "result": 40.3, "unit": "wt %"}, {"measurement": "aqueous solubility wt % a.e. @20° C.", "setting": "[2]; Table 10b, second experiment, dicamba acid and salts, 20° C., listed as sodium salt", "result": 36.3, "unit": "wt % a.e."}, {"measurement": "aqueous solubility wt % a.i. @20° C.", "setting": "[2]; Table 10b, second experiment, 20° C., listed as sodium salt", "result": 40.3, "unit": "wt % a.i."}, {"measurement": "Mean Dicamba in Distillate", "setting": "[3]; 1% a.e. dicamba, solution pH 3.31", "result": 3.42, "unit": "ppm"}, {"measurement": "Mean Dicamba in Distillate", "setting": "[3]; 1% a.e. dicamba, solution pH 4.25", "result": 0.70, "unit": "ppm"}, {"measurement": "Mean Dicamba in Distillate", "setting": "[3]; 1% a.e. dicamba, solution pH 6.19", "result": 0.13, "unit": "ppm"}, {"measurement": "Mean Dicamba in Distillate", "setting": "[3]; 1% a.e. dicamba, solution pH 9.82", "result": 0.09, "unit": "ppm"}, {"measurement": "Mean Dicamba in Distillate", "setting": "[3]; 1% a.e. dicamba, solution pH 11.15", "result": 0.06, "unit": "ppm"}, {"measurement": "Mean Dicamba in Distillate", "setting": "[3]; 2% a.e. dicamba, solution pH 3.33", "result": 5.74, "unit": "ppm"}, {"measurement": "Mean Dicamba in Distillate", "setting": "[3]; 2% a.e. dicamba, solution pH 4.29", "result": 1.39, "unit": "ppm"}, {"measurement": "Mean Dicamba in Distillate", "setting": "[3]; 2% a.e. dicamba, solution pH 6.28", "result": 0.32, "unit": "ppm"}, {"measurement": "Mean Dicamba in Distillate", "setting": "[3]; 2% a.e. dicamba, solution pH 9.93", "result": 0.16, "unit": "ppm"}, {"measurement": "Mean Dicamba in Distillate", "setting": "[3]; 2% a.e. dicamba, solution pH 11.50", "result": 0.15, "unit": "ppm"}, {"measurement": "Mean Dicamba in Distillate", "setting": "[3]; 5% a.e. dicamba, solution pH 3.36", "result": 11.57, "unit": "ppm"}, {"measurement": "Mean Dicamba in Distillate", "setting": "[3]; 5% a.e. dicamba, solution pH 4.34", "result": 2.36, "unit": "ppm"}, {"measurement": "Mean Dicamba in Distillate", "setting": "[3]; 5% a.e. dicamba, solution pH 6.32", "result": 0.77, "unit": "ppm"}, {"measurement": "Mean Dicamba in Distillate", "setting": "[3]; 5% a.e. dicamba, solution pH 10.36", "result": 0.45, "unit": "ppm"}, {"measurement": "Mean Dicamba in Distillate", "setting": "[3]; 5% a.e. dicamba, solution pH 12.15", "result": 0.22, "unit": "ppm"}, {"measurement": "ppm Dicamba in distillate", "setting": "[3]; Table 4h summary, 5% a.e. salt solution, pH 6.32", "result": 0.8, "unit": "ppm"}, {"measurement": "crystallization in the presence of potassium glyphosate", "setting": "[4]; 35.8% a.e. dicamba salt solution added to […] Roundup POWERMAX solution", "result": "induced crystallization"}, {"measurement": "g to crystals", "setting": "[4]; grams dicamba a.e. (35.8% a.e. salt solution) added to […] Roundup POWERMAX solution to induce crystallization or precipitation", "result": 13.6, "unit": "g"}]}, {"compound": "CNC.COc1c(Cl)ccc(Cl)c1C(=O)O", "note": "[Dicamba DMA salt]", "values": [{"measurement": "pH Solution After Distillation", "setting": "[5]; starting solution pH 3.60", "result": 3.58}, {"measurement": "ppm DMA in Distillate", "setting": "[5]; starting solution pH 3.60", "result": "Undetectable"}, {"measurement": "pH Solution After Distillation", "setting": "[5]; starting solution pH 8.20", "result": 7.04}, {"measurement": "ppm DMA in Distillate", "setting": "[5]; starting solution pH 8.20", "result": 400, "unit": "ppm"}, {"measurement": "pH Solution After Distillation", "setting": "[5]; starting solution pH 10.10", "result": 6.4}, {"measurement": "ppm DMA in Distillate", "setting": "[5]; starting solution pH 10.10", "result": 5000, "unit": "ppm"}, {"measurement": "amine in the distillate by HPLC analysis", "setting": "[5]; acidic pH (3.6)", "result": "no detectable amine"}, {"measurement": "solubility g a.e./L", "setting": "[6]", "result": "~600", "unit": "g a.e./L"}, {"measurement": "solubility wt % a.e.", "setting": "[6]", "result": "about 45 wt % a.e."}]}]}
